What was measured:
[1] = test system: TtgA2 (TtgR-p65); experiment: PEACE: SEAP expression after transient co-transfection of pMG10 and pMG18 (PSV40-TtgA2-pA); format: cell-based, Pseudomonas putida DOT-T1E; conditions: 48 h
Excerpt: Three different transactivators are designed, harboring either the VP16 (TtgA1; pMG11, TtgR-VP16) (Triezenberg S. J. et al., loc. cit.), the p65 (TtgA2; pMG18, TtgR-p65) (Urlinger S., et al., 2000, Gene 247(1-2):103-110) or the human E2F4 (TtgA3; pMG19, TtgR-E2F4) (Akagi K., Kanai M., Saya H., Kozu T., Berns A., 2001, Nucleic Acids Res 29(4):e23) transactivation domains. pMG11, pMG18 or pMG19 are co-transfected with pMG10 (PTtgR1-SEAP-pA) into CHO-K1, HEK-293 as well as primary human fibroblasts and keratinocytes, and SEAP expression is profiled after 48 h of cultivation in the presence or absence of 50 μM phloretin. […] All transactivators mediate similar basal expression levels when phloretin is […] in the medium, but due to their cell-type specificity and graded maximum transcription-initiation capacities, the three transactivators offer a selection of defined expression windows.

[2] = biological target: T1, TtgA1 (TtgR-VP16) (Pseudomonas putida, UniProt Q9AIU0); experiment: Autoregulated PEACE-controlled SEAP expression (pMG13) in CHO-K1; format: cell-based; parameters: expressed in transfected cells; host or cells: CHO-K1 (transient pMG11 or pMG13); also HEK-293, BHK-21, COS-7, HaCaT, HT-1080, NIH/3T3, primary human fibroblasts and keratinocytes; conditions: 50 μM phloretin, 48 h
[3] = test system: TtgK (TtgR-KRAB); experiment: PEACE-ON: SEAP expression of CHO-K1 co-transfected with pMG28 (PSV40-TtgK-pA) and pMG27 (PTtgRON-SEAP-pA); format: cell-based; conditions: phloretin 0-50 μM, 48 h
Method: (C) SEAP expression profiles of CHO-K1 transiently transfected with pMG28 (PSV40-TtgK-pA) and pMG27 (PTtgRON-SEAP-pA) and cultivated for 48 h in the presence of different phloretin concentrations (0-50 μM).
By fusing TtgR to the human Kruppel-associated box-protein (KRAB) (Moosmann P., Georgiev O., Thiesen H. J., Hagmann M., Schaffner W., […], Biol Chem 378(7):669-677) a synthetic mammalian transrepressor (TtgK) is created, which is able to bind and inhibit transcription from a promoter (PTtgRON) harboring eight OTtgR-elements located 3′ of a constitutive simian virus 40 promoter (PSV40), in a phloretin-responsive manner (FIGS. 10A and B). Co-transfection of the constitutive TtgK expression vector pMG28 (PSV40-TtgK-pA) and pMG27 (PTtgRON-SEAP-pA) encoding a TtgK-specific PTtgRON-driven SEAP expression unit, results in low-level, basal SEAP expression (2.3±0.26 U/L). […]

[4] = biological target: T1, TtgA1 (TtgR-VP16); experiment: Time-delayed induction of SEAP production of CHO-PEACE8 in bioreactor; format: cell-based; parameters: expressed in transfected cells; host or cells: CHO-K1 (transient pMG11 or pMG13); also HEK-293, BHK-21, COS-7, HaCaT, HT-1080, NIH/3T3, primary human fibroblasts and keratinocytes; conditions: 1 L bioreactor, start doses 60, 80 or 100 μM phloretin
Method: 2×10^3 cells/mL CHO-PEACE8 are cultivated in a bioreactor containing 1 L culture medium supplemented with either 60, 80 or 100 μM phloretin and SEAP production is profiled for 211 h. Owing to a defined phloretin degradation profile in culture and a precise induction threshold of 40 μM phloretin, the onset of SEAP production can be programmed to occur at a very precise point in time by defining the cell density and the phloretin concentration at production start.
Since phloretin is a non-toxic fruit component, it is an ideal product gene inducer for biopharmaceutical manufacturing scenarios, which require precise timing or dosing of difficult-to-express protein pharmaceuticals. Also, since phloretin has a determined half-live of 70 h in mammalian cell culture systems any production culture can be programmed to start product gene expression at a predefined point in time as phloretin concentrations drop below a repressing threshold level. A 1 L BioWave® bioreactor is inoculated with 2×10^3 CHO-PEACE8 and different transgene-repressing phloretin doses of 60, 80 or 100 μM. While CHO-PEACE8 grows exponentially from the start of the bioprocess, SEAP production gradually increases once phloretin is degraded to non-repressive levels (40 μM; FIG. 8). […]

T1 sequence (Q9AIU0 whole entry, added parts left off): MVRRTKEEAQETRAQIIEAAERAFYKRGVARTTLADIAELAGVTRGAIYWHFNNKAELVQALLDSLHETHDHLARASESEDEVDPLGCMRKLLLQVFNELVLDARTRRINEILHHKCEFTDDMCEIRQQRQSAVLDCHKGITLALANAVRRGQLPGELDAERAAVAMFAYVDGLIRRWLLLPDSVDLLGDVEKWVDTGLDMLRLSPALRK

For O=C(CCc1ccc(O)cc1)c1c(O)cc(O)cc1O [phloretin, 3-[4-hydroxyphenyl]-1-[2,4,6-trihydroxyphenyl]-1-propanone], the “SEAP Production” value ([1]; CHO-K1, phloretin 50 μM) was 0.8 ± 0.05 U/L, the “SEAP Production” value ([1]; HEK-293, phloretin 50 μM) was 1.9 ± 0.1 U/L and the “SEAP Production” value ([1]; HaCaT, phloretin 50 μM) was 0.5 ± 0.05 U/L. The “SEAP Production” value ([1]; human primary fibroblasts, phloretin 50 μM) was 0.2 ± 0.02 U/L, the “SEAP Production” value ([1]; human primary keratinocytes, phloretin 50 μM) was 0.3 ± 0.02 U/L and the “SEAP expression (autoregulated circuit)” value [2] was “completely repressed”. The “SEAP expression dose response (PEACE-ON)” value [3] was “dose-dependent induction of SEAP expression” and the “induction threshold (non-repressive phloretin level) for SEAP production” value [4] was 40 µM.

Source: patent US8653046B2, “Controlling transgene expression across the skin” (ETH Zurich, priority 2009, dated 2014)
